Source: EP0584797A2, “Novel cephalosporin compounds and processes for the preparation thereof” (LUCKY LTD., priority 1992, dated 1994)
In brackets after ≈: the same amount, converted by molar mass.

Key:
Assay in all cases: minimal inhibitory concentration, two-fold agar dilution
Type in all cases: cell-based
[1] = tested on: Providencia rettgeri ATCC 9250; details: ATCC9250, Muller-Hinton agar, 37°C, 20 hours, read-out: MIC values against the standard strains
Procedure, shortened: (§1)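 Compounds were serially diluted two-fold into Mueller-Hinton agar, and each plate was spot-inoculated with the test strain at 10⁷ CFU per ml. Plates were incubated at 37°C for 20 hours before MIC values were read.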

[2] = tested on: Staphylococcus aureus ATCC 10537; details: ATCC10537, Muller-Hinton agar, 37°C, 20 hours, read-out: MIC values against the standard strains
Procedure, shortened: as §1

[3] = tested on: Enterobacter cloacae ATCC 27508; details: ATCC27508, Muller-Hinton agar, 37°C, 20 hours, read-out: MIC values against the standard strains
Procedure, shortened: as §1

[4] = tested on: Citrobacter freundii ATCC 8090; details: ATCC8090, Muller-Hinton agar, 37°C, 20 hours, read-out: MIC values against the standard strains
Procedure, shortened: as §1

[5] = tested on: Staphylococcus epidermidis ATCC 12228; details: ATCC12228, Muller-Hinton agar, 37°C, 20 hours, read-out: MIC values against the standard strains
Procedure, shortened: as §1

[6] = tested on: Klebsiella pneumoniae ATCC 10031; details: ATCC10031, Muller-Hinton agar, 37°C, 20 hours, read-out: MIC values against the standard strains
Procedure, shortened: as §1

[7] = tested on: Pseudomonas aeruginosa ATCC 10145; details: ATCC10145, Muller-Hinton agar, 37°C, 20 hours, read-out: MIC values against the standard strains
Procedure, shortened: as §1

[8] = tested on: Bacillus megaterium ATCC 9885; details: Priestia megaterium, ATCC9885; Muller-Hinton agar; 37°C; 20 hours; read-out: MIC values against the standard strains
Procedure, shortened: as §1

[9] = tested on: Serratia marcescens ATCC 27117; details: ATCC27117, Muller-Hinton agar, 37°C, 20 hours, read-out: MIC values against the standard strains
Procedure, shortened: as §1

[10] = tested on: Salmonella typhimurium ATCC 14028; details: Salmonella enterica; Muller-Hinton agar; 37°C; 20 hours; read-out: MIC values against the standard strains
Procedure, shortened: as §1

[11] = tested on: Proteus mirabilis ATCC 25933; details: ATCC25933, Muller-Hinton agar, 37°C, 20 hours, read-out: MIC values against the standard strains
Procedure, shortened: as §1

[12] = tested on: Escherichia coli ATCC 25922; details: ATCC25922, Muller-Hinton agar, 37°C, 20 hours, read-out: MIC values against the standard strains
Procedure, shortened: as §1

[13] = tested on: Staphylococcus aureus ATCC 6538p; details: ATCC6538P, Muller-Hinton agar, 37°C, 20 hours, read-out: MIC values against the standard strains
Procedure, shortened: as §1

[14] = tested on: Escherichia coli ATCC 10536; details: ATCC10536, Muller-Hinton agar, 37°C, 20 hours, read-out: MIC values against the standard strains
Procedure, shortened: as §1

[15] = tested on: Enterobacter aerogenes ATCC 29751; details: Klebsiella aerogenes, ATCC29751; Muller-Hinton agar; 37°C; 20 hours; read-out: MIC values against the standard strains
Procedure, shortened: as §1

[16] = tested on: Morganella morganii ATCC 8076h; details: ATCC8076H, Muller-Hinton agar, 37°C, 20 hours, read-out: MIC values against the standard strains
Procedure, shortened: as §1

[17] = tested on: Micrococcus luteus ATCC 9341; details: ATCC9341, Muller-Hinton agar, 37°C, 20 hours, read-out: MIC values against the standard strains
Procedure, shortened: as §1

[18] = tested on: Pseudomonas aeruginosa ATCC 25619; details: ATCC25619, Muller-Hinton agar, 37°C, 20 hours, read-out: MIC values against the standard strains
Procedure, shortened: as §1

[19] = tested on: Bacillus cereus ATCC 11778; details: ATCC11778, Muller-Hinton agar, 37°C, 20 hours, read-out: MIC values against the standard strains
Procedure, shortened: as §1

[20] = tested on: Proteus vulgaris ATCC 6059; details: ATCC6059, Muller-Hinton agar, 37°C, 20 hours, read-out: MIC values against the standard strains
Procedure, shortened: as §1

[21] = tested on: Shigella sonnei ATCC 11060; details: ATCC11060, Muller-Hinton agar, 37°C, 20 hours, read-out: MIC values against the standard strains
Procedure, shortened: as §1

[22] = tested on: Shigella flexneri ATCC 11836; details: ATCC11836, Muller-Hinton agar, 37°C, 20 hours, read-out: MIC values against the standard strains
Procedure, shortened: as §1

[23] = tested on: Acinetobacter calcoaceticus ATCC 15437; details: ATCC15437, Muller-Hinton agar, 37°C, 20 hours, read-out: MIC values against the standard strains
Procedure, shortened: as §1

[24] = tested on: Pseudomonas aeruginosa ATCC 27853; details: ATCC27853, Muller-Hinton agar, 37°C, 20 hours, read-out: MIC values against the standard strains
Procedure, shortened: as §1

[25] = tested on: Streptococcus faecalis ATCC 29212; details: Enterococcus faecalis, ATCC29212; Muller-Hinton agar; 37°C; 20 hours; read-out: MIC values against the standard strains
Procedure, shortened: as §1

Compound | MIC [1] | MIC [2] | MIC [3] | MIC [4] | MIC [5] | MIC [6] | MIC [7] | MIC [8] | MIC [9] | MIC [10] | MIC [11] | MIC [12] | MIC [13] | MIC [14] | MIC [15] | MIC [16] | MIC [17] | MIC [18] | MIC [19] | MIC [20] | also measured
CCO/N=C(\C(=O)N[C@@H]1C(=O)N2C(C(=O)[O-])=C(CSc3nc(N)cc[n+]3CC)CS[C@H]12)c1nsc(N)n1 [Example 16, 7-[(Z)-2-(5-amino-1,2,4-thiadiazol-3-yl)-2-(ethoxyimino)acetamido]-3-(4-amino-1-ethylpyrimidinium-2-yl)thiomethyl-3-cephem-4-carboxylate] | 0.031 µg/mL (≈ 0.0548 µM) | 0.5 µg/mL (≈ 0.884 µM) | 0.063 µg/mL (≈ 0.111 µM) | 0.5 µg/mL (≈ 0.884 µM) | 0.5 µg/mL (≈ 0.884 µM) | 0.016 µg/mL (≈ 0.0283 µM) | 16 µg/mL (≈ 28.3 µM) | 0.5 µg/mL (≈ 0.884 µM) | 1 µg/mL (≈ 1.77 µM) | 1 µg/mL (≈ 1.77 µM) | 2 µg/mL (≈ 3.54 µM) | 0.031 µg/mL (≈ 0.0548 µM) | 0.25 µg/mL (≈ 0.442 µM) | 0.031 µg/mL (≈ 0.0548 µM) | 0.063 µg/mL (≈ 0.111 µM) | 0.031 µg/mL (≈ 0.0548 µM) | 0.5 µg/mL (≈ 0.884 µM) | 2 µg/mL (≈ 3.54 µM) | 64 µg/mL (≈ 113 µM) | 2 µg/mL (≈ 3.54 µM) | MIC [21]: 0.5 µg/mL (≈ 0.884 µM); MIC [22]: 0.5 µg/mL (≈ 0.884 µM); MIC [23]: 8 µg/mL (≈ 14.1 µM); MIC [24]: 4 µg/mL (≈ 7.07 µM); MIC [25]: 32 µg/mL (≈ 56.6 µM)
COc1cc(N)nc(SCC2=C(C(=O)[O-])N3C(=O)[C@@H](NC(=O)/C(=N\OC(C)(C)C(=O)O)c4csc(N)n4)[C@H]3SC2)[n+]1C [Example 17, 7-[(Z)-2-(2-aminothiazol-4-yl)-2-(carboxyprop-2-oxyimino)acetamido]-3-(4-amino-6-methoxy-1-methylpyrimidinium-2-yl)thiomethyl-3-cephem-4-carboxylate] | 0.13 µg/mL (≈ 0.204 µM) | 1 µg/mL (≈ 1.57 µM) | 0.016 µg/mL (≈ 0.0251 µM) | 0.13 µg/mL (≈ 0.204 µM) | 1 µg/mL (≈ 1.57 µM) | 0.063 µg/mL (≈ 0.0986 µM) | 4 µg/mL (≈ 6.26 µM) | 0.25 µg/mL (≈ 0.391 µM) | 0.25 µg/mL (≈ 0.391 µM) | 0.25 µg/mL (≈ 0.391 µM) | 0.063 µg/mL (≈ 0.0986 µM) | 0.13 µg/mL (≈ 0.204 µM) | 4 µg/mL (≈ 6.26 µM) | 0.063 µg/mL (≈ 0.0986 µM) | 4 µg/mL (≈ 6.26 µM) | 0.016 µg/mL (≈ 0.0251 µM) | 0.5 µg/mL (≈ 0.783 µM) | 1 µg/mL (≈ 1.57 µM) | 128 µg/mL (≈ 200 µM) | 0.13 µg/mL (≈ 0.204 µM) | MIC [21]: 0.13 µg/mL (≈ 0.204 µM); MIC [22]: 0.031 µg/mL (≈ 0.0485 µM); MIC [23]: 2 µg/mL (≈ 3.13 µM); MIC [24]: 2 µg/mL (≈ 3.13 µM); MIC [25]: > 128 µg/mL
CCO/N=C(\C(=O)N[C@@H]1C(=O)N2C(C(=O)[O-])=C(CSc3nc(N)cc(OC)[n+]3C)CS[C@H]12)c1csc(N)n1 [Example 18, 7-[(Z)-2-(2-aminothiazol-4-yl)-2-(ethoxyimino)acetamido]-3-(4-amino-6-methoxy-1-methylpyrimidinium-2-yl)thiomethyl-3-cephem-4-carboxylate] | ≤ 0.008 µg/mL | 0.25 µg/mL (≈ 0.431 µM) | ≤ 0.008 µg/mL | 0.13 µg/mL (≈ 0.224 µM) | 0.13 µg/mL (≈ 0.224 µM) | ≤ 0.008 µg/mL | 16 µg/mL (≈ 27.6 µM) | 0.13 µg/mL (≈ 0.224 µM) | 0.5 µg/mL (≈ 0.861 µM) | 0.5 µg/mL (≈ 0.861 µM) | 0.5 µg/mL (≈ 0.861 µM) | 0.25 µg/mL (≈ 0.431 µM) | 0.5 µg/mL (≈ 0.861 µM) | 0.13 µg/mL (≈ 0.224 µM) | 1 µg/mL (≈ 1.72 µM) | ≤ 0.008 µg/mL | 0.016 µg/mL (≈ 0.0276 µM) | 2 µg/mL (≈ 3.44 µM) | 32 µg/mL (≈ 55.1 µM) | 0.5 µg/mL (≈ 0.861 µM) | MIC [21]: 0.25 µg/mL (≈ 0.431 µM); MIC [22]: 0.13 µg/mL (≈ 0.224 µM); MIC [23]: 8 µg/mL (≈ 13.8 µM); MIC [24]: 16 µg/mL (≈ 27.6 µM); MIC [25]: 16 µg/mL (≈ 27.6 µM)
